What follows are compounds tested against human mOR (Homo sapiens (Human), UniProt P35372) (assay: cell-based). Settings: not given.
Sequence of human mOR (P35372 whole entry): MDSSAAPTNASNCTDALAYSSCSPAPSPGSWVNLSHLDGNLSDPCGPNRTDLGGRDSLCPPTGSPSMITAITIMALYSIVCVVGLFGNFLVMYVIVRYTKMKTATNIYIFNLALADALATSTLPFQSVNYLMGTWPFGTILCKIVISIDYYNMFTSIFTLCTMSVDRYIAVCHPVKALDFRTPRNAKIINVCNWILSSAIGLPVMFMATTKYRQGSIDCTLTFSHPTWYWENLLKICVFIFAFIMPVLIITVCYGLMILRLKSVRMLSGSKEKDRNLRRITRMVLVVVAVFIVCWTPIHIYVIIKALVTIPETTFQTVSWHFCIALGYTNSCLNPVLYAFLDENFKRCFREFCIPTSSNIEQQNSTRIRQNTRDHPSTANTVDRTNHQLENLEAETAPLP
With `Cc1ccc([C@@H](CC(=O)NC[C@H](Cc2ccc3[nH]ncc3c2)N(C)C)C2(C(F)(F)F)CC2)cn1` [Compound 211, (R)-N-((S)-2-(dimethylamino)-3-(1H-indazol-5-yl)propyl)-3-(6-methylpyridin-3-yl)-3-(1-(trifluoromethyl)cyclopropyl)propanamide] the IC50 was less than 300 nM.
For `CN(C)[C@H](CNC(=O)C[C@H](c1cccnc1)C1(C(F)(F)F)CC1)Cc1ccc2[nH]ncc2c1` [Compound 213, (R)-N-((S)-2-(dimethylamino)-3-(1H-indazol-5-yl)propyl)-3-(pyridin-3-yl)-3-(1-(trifluoromethyl)cyclopropyl)propanamide], the IC50 was less than 300 nM.
`CN(C)[C@H](CNC(=O)C[C@H](c1cccnc1)C1(C(F)(F)F)CC1)Cc1cc(F)c2[nH]ncc2c1` [Compound 230, (R)-N-((S)-2-(dimethylamino)-3-(7-fluoro-1H-indazol-5-yl)propyl)-3-(pyridin-3-yl)-3-(1-(trifluoromethyl)cyclopropyl)propanamide] gave an IC50 of less than 300 nM.
`Cc1cc(C[C@@H](CNC(=O)C[C@H](c2cccnc2)C2(C(F)(F)F)CC2)N(C)C)cc2cn[nH]c12` [Compound 231, (R)-N-((S)-2-(dimethylamino)-3-(7-methyl-1H-indazol-5-yl)propyl)-3-(pyridin-3-yl)-3-(1-(trifluoromethyl)cyclopropyl)propanamide; bis(trifluoroacetic acid)] gave an IC50 of less than 300 nM.
Work on `CN(C)[C@H](CNC(=O)C[C@H](c1cccnc1)C1(C(F)(F)F)CC1)Cc1ccc2cn[nH]c2c1` [Compound 232, (R)-N-((S)-2-(dimethylamino)-3-(1H-indazol-6-yl)propyl)-3-(pyridin-3-yl)-3-(1-(trifluoromethyl)cyclopropyl)propanamide] yielded an IC50 of 300 to 3000 nM.
For `CN(C)[C@H](CNC(=O)C[C@H](c1cccnc1)C1(C(F)(F)F)CC1)Cc1cc2cn[nH]c2cc1Cl` [Compound 235, (R)-N-((S)-3-(6-chloro-1H-indazol-5-yl)-2-(dimethylamino)propyl)-3-(pyridin-3-yl)-3-(1-(trifluoromethyl)cyclopropyl)propanamide], the IC50 was less than 300 nM.
For `CN(C)[C@H](CNC(=O)C[C@H](c1cccnc1)C1(C(F)(F)F)CC1)Cc1cc(F)c(O)cc1F` [Compound 238, (R)-N-((S)-3-(2,5-difluoro-4-hydroxyphenyl)-2-(dimethylamino)propyl)-3-(pyridin-3-yl)-3-(1-(trifluoromethyl)cyclopropyl)propanamide], the IC50 was less than 300 nM.
With `CN(C)[C@H](CNC(=O)C[C@H](c1ccncc1)C1CC1)Cc1c(F)cc(O)cc1F` [Compound 239, (S)-3-cyclopropyl-N-((S)-3-(2,6-difluoro-4-hydroxyphenyl)-2-(dimethylamino)propyl)-3-(pyridin-4-yl)propanamide] the IC50 was less than 300 nM.

Same assay, conditions: CHO Tag-lite human mOR stable cell line; forskolin 4 μM and DAMGO at EC90; read-out: mOR cAMP Antagonist Assay IC50
`CN(C)[C@H](CNC(=O)C[C@@H](CC1CC1)c1cccnc1)Cc1ccc2[nH]ncc2c1` [Compound 212, (R)-4-cyclopropyl-N-((S)-2-(dimethylamino)-3-(1H-indazol-5-yl)propyl)-3-(pyridin-3-yl)butanamide] was tested, and the IC50 was greater than 3000 nM.
`Cc1ncc([C@@H](CC(=O)NC[C@H](Cc2cc3cn[nH]c3cc2Cl)N(C)C)C2(C(F)(F)F)CC2)cn1` [Compound 233, (R)-N-((S)-3-(6-chloro-H-indazol-5-yl)-2-(dimethylamino)propyl)-3-(2-methylpyrimidin-5-yl)-3-(1-(trifluoromethyl)cyclopropyl) propanamide] was tested, and the IC50 was less than 300 nM.
With `CN(C)[C@H](CNC(=O)C[C@H](c1ccncc1)C1(C(F)(F)F)CC1)Cc1cc2cn[nH]c2cc1Cl` [Compound 234, (R)-N-((S)-3-(6-chloro-H-indazol-5-yl)-2-(dimethylamino)propyl)-3-(pyridin-4-yl)-3-(1-(trifluoromethyl)cyclopropyl)propanamide] the IC50 was less than 300 nM.
`CN(C)[C@H](CNC(=O)C[C@@H](c1cccnc1)C1(C(F)(F)F)CC1)Cc1ccc2[nH]ncc2c1` [Compound 237, (S)-N-((S)-2-(dimethylamino)-3-(1H-indazol-5-yl)propyl)-3-(pyridin-3-yl)-3-(1-(trifluoromethyl)cyclopropyl)propanamide] was tested, and the IC50 was less than 300 nM.
